Tested on: mRNA expression in cardiovascular tissues
Assay: Affymetrix GeneChip mRNA expression profiling of monkey tissues (iliac vein, pulmonary vein, aorta, carotid artery, heart) after two-week oral-gavage treatment
Details: iliac vein
[1] = group average (Vioxx without A60055)
[2] = group avg, Vioxx without A60055

## Cc1ccc(Nc2c(F)cccc2Cl)c(CC(=O)O)c1 [COX189, Lumiracoxib]
[1]
  ACE (209749_s_at) mRNA expression, Avg fold changes vs control: 0.8 fold
  B2M (216231_s_at) mRNA expression, Avg fold changes vs control: 1.1 fold
  BCL6 (215990_s_at) mRNA expression, Avg fold changes vs control: 1.4 fold
  BTN2A2 (205298_s_at) mRNA expression, Avg fold changes vs control: 1.3 fold
  CCR1 (205098_at) mRNA expression, Avg fold changes vs control: 0.8 fold
  CD2 (205831_at) mRNA expression, Avg fold changes vs control: 1.1 fold
  CD48 (204118_at) mRNA expression, Avg fold changes vs control: 1.0 fold
  CD53 (203416_at) mRNA expression, Avg fold changes vs control: 1.0 fold
  CDC2 (210559_s_at) mRNA expression, Avg fold changes vs control: 1.0 fold
  CYBB (203922_s_at) mRNA expression, Avg fold changes vs control: 0.9 fold
  EMP3 (203729_at) mRNA expression, Avg fold changes vs control: 0.8 fold
  FCER1G (204232_at) mRNA expression, Avg fold changes vs control: 1.0 fold
  FCGR2A (203561_at) mRNA expression, Avg fold changes vs control: 0.8 fold
  FCGRT (218831_s_at) mRNA expression, Avg fold changes vs control: 1.0 fold
  FKBP11 (219117_s_at) mRNA expression, Avg fold changes vs control: 0.7 fold
  FKBP11 (219118_at) mRNA expression, Avg fold changes vs control: 0.8 fold
  GP6 (220336_s_at) mRNA expression, Avg fold changes vs control: 1.2 fold
  HCLS1 (202957_at) mRNA expression, Avg fold changes vs control: 1.0 fold
  HEM1 (209734_at) mRNA expression, Avg fold changes vs control: 1.0 fold
  HLA-A (210514_x_at) mRNA expression, Avg fold changes vs control: 1.2 fold
  HLA-A (213932_x_at) mRNA expression, Avg fold changes vs control: 1.2 fold
  HLA-C (211799_x_at) mRNA expression, Avg fold changes vs control: 1.5 fold
  HLA-E (200904_at) mRNA expression, Avg fold changes vs control: 1.0 fold
  HLA-F (221978_at) mRNA expression, Avg fold changes vs control: 1.4 fold
  ICAM1 (202637_s_at) mRNA expression, Avg fold changes vs control: 1.0 fold
  IL13RA1 (210904_s_at) mRNA expression, Avg fold changes vs control: 1.1 fold
  PIK3CD (203879_at) mRNA expression, Avg fold changes vs control: 1.1 fold
  PRKCBP1 (209048_s_at) mRNA expression, Avg fold changes vs control: 1.1 fold
  PRKCBP1 (209049_s_at) mRNA expression, Avg fold changes vs control: 0.9 fold
  PTPN7 (204852_s_at) mRNA expression, Avg fold changes vs control: 1.0 fold
  SIGIRR (52940_at) mRNA expression, Avg fold changes vs control: 0.9 fold
  STAT1 (200887_s_at) mRNA expression, Avg fold changes vs control: 1.3 fold
  STAT1 (AFFX-HUMISGF3A/M97935_3_at) mRNA expression, Avg fold changes vs control: 1.3 fold
  STAT3 (208992_s_at) mRNA expression, Avg fold changes vs control: 1.0 fold
  TCIRG1 (204158_s_at) mRNA expression, Avg fold changes vs control: 1.0 fold
  THY1 (213869_x_at) mRNA expression, Avg fold changes vs control: 0.9 fold
  TMPO (209753_s_at) mRNA expression, Avg fold changes vs control: 0.9 fold
  TMSB10 (217733_s_at) mRNA expression, Avg fold changes vs control: 1.1 fold
  TNFRSF21 (218856_at) mRNA expression, Avg fold changes vs control: 1.1 fold
  TRB@ (210915_x_at) mRNA expression, Avg fold changes vs control: 1.3 fold
  TRB@ (213193_x_at) mRNA expression, Avg fold changes vs control: 1.2 fold
[2]
  209813_x_at avg fold change vs control: 1.0 fold
  AIF1 (209901_x_at) avg fold change vs control: 0.7 fold
  AIF1 (213095_x_at) avg fold change vs control: 0.5 fold
  B2M (201891_s_at) avg fold change vs control: 1.0 fold
  BCL3 (204908_s_at) avg fold change vs control: 1.0 fold
  BTN3A1 (207485_x_at) avg fold change vs control: 2.1 fold
  BTN3A3 (38241_at) avg fold change vs control: 1.0 fold
  BTN3A3 (204820_s_at) avg fold change vs control: 1.1 fold
  BTN3A3 (204821_at) avg fold change vs control: 1.5 fold
  C1QA (218232_at) avg fold change vs control: 1.0 fold
  C1QB (202953_at) avg fold change vs control: 1.0 fold
  C1R (212067_s_at) avg fold change vs control: 1.0 fold
  C1S (208747_s_at) avg fold change vs control: 1.0 fold
  C2 (203052_at) avg fold change vs control: 1.1 fold
  C4A (208451_s_at) avg fold change vs control: 0.9 fold
  CASP1 (209970_x_at) avg fold change vs control: 1.1 fold
  CASP1 (211367_s_at) avg fold change vs control: 1.2 fold
  CCL2 (216598_s_at) avg fold change vs control: 1.6 fold
  CCL3 (205114_s_at) avg fold change vs control: 0.9 fold
  CCL5 (1405_i_at) avg fold change vs control: 0.9 fold
  CCL8 (214038_at) avg fold change vs control: 1.7 fold
  CCL18 (209924_at) avg fold change vs control: 2.3 fold
  CCL19 (210072_at) avg fold change vs control: 1.4 fold
  CCNB2 (202705_at) avg fold change vs control: 1.4 fold
  CD3D (213539_at) avg fold change vs control: 1.7 fold
  CD8A (205758_at) avg fold change vs control: 1.2 fold
  CD14 (201743_at) avg fold change vs control: 0.7 fold
  CD74 (209619_at) avg fold change vs control: 1.0 fold
  CLU (208791_at) avg fold change vs control: 1.0 fold
  CMAH (210571_s_at) avg fold change vs control: 1.1 fold
  CTSC (201487_at) avg fold change vs control: 1.1 fold
  CTSK (202450_s_at) avg fold change vs control: 1.2 fold
  CTSS (202902_s_at) avg fold change vs control: 1.1 fold
  CX3CR1 (205898_at) avg fold change vs control: 1.2 fold
  CXCL9 (203915_at) avg fold change vs control: 1.7 fold
  CXCL10 (204533_at) avg fold change vs control: 1.4 fold
  CXCL11 (210163_at) avg fold change vs control: 2.6 fold
  CXCL11 (211122_s_at) avg fold change vs control: 2.3 fold
  CXCL12 (209687_at) avg fold change vs control: 0.8 fold
  CYBA (203028_s_at) avg fold change vs control: 1.2 fold
  CYBB (203923_s_at) avg fold change vs control: 1.0 fold
  CYP1B1 (202436_s_at) avg fold change vs control: 1.3 fold
  CYP3A5 (214234_s_at) avg fold change vs control: 1.3 fold
  CYP11B1 (214630_at) avg fold change vs control: 1.0 fold
  DUSP6 (208893_s_at) avg fold change vs control: 0.9 fold
  ECGF1 (204858_s_at) avg fold change vs control: 1.7 fold
  ECM1 (209365_s_at) avg fold change vs control: 1.0 fold
  F2RL1 (206429_at) avg fold change vs control: 1.8 fold
  F13A1 (203305_at) avg fold change vs control: 1.1 fold
  FCGR1A (214511_x_at) avg fold change vs control: 1.0 fold
  FCGR3A (204006_s_at) avg fold change vs control: 1.0 fold
  G1P2 (205483_s_at) avg fold change vs control: 1.5 fold
  GZMB (210164_at) avg fold change vs control: 0.8 fold
  HCA127 (220040_x_at) avg fold change vs control: 0.9 fold
  HCK (208018_s_at) avg fold change vs control: 1.1 fold
  HFE (210864_x_at) avg fold change vs control: 1.3 fold

Source: patent US9738932B2, “Biomarkers for cardiovascular side-effects induced by cox-2 inhibitory compounds” (FIRALIS SAS, priority 2005, dated 2017)
